Source: patent US7951374B2, “Methods for inhibiting STAT3 signaling in immune cells” (University of South Florida, priority 2004, dated 2011)

Columns and labels:
Phospho-Stat3 (Stat3P) = biological target: T1, Phospho-Stat3 (Stat3P) (Mus musculus, UniProt P42227); test: Phospho-Stat3 levels in MB49 tumor-infiltrating DCs after intravenous CPA-7, intracellular flow cytometry; assay type: in vivo; conditions: 24 hours after intravenous injection, compared to vehicle-treated mice (FIG. 33)
T1 construct: from tissue; host or cells: tumor-infiltrating dendritic cells from MB49 tumors of mice
T1 sequence (P42227 whole entry): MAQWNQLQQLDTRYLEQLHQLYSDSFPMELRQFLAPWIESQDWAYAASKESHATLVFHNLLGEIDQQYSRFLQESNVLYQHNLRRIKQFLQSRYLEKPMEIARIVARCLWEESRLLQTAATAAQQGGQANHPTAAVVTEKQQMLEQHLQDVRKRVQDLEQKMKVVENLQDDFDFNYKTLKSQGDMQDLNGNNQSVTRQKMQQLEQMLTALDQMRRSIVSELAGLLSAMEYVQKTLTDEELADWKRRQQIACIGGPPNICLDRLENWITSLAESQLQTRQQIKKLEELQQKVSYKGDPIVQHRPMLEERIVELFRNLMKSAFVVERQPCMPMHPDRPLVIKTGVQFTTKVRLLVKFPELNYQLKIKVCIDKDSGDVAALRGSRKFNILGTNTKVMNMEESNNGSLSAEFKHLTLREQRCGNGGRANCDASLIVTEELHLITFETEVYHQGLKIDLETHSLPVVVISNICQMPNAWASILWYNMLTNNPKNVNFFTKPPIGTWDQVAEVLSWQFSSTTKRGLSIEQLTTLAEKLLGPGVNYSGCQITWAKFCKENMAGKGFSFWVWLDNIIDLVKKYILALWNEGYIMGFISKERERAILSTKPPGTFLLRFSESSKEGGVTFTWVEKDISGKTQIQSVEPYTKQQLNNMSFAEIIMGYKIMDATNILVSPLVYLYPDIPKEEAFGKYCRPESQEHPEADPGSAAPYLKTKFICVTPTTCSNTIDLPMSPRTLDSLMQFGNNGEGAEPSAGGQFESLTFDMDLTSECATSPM
Protocol: (§1) Isolation of tumor-infiltrating immune cell subsets and intracellular staining of signaling molecules. Freshly excised tumor tissues were gently minced into small pieces and incubated in 400 U/ml of collagenase D (Roche) solution for 30 minutes at 37° C. Cell suspensions were filtered through a mesh filter for isolation of various immune cell subsets using specific antibodies in combination with EASYSEP magnetic nanoparticles (StemCell Technologies, Canada). Isolated tumor-infiltrating cells were fixed in paraformaldehyde and permeated in methanol before intracellular staining with antibodies to phosphotyrosine-Stat3 and Stat1 (BD Biosciences) or with Foxp3-specific antibody (eBiosciences). Fluorescence data was collected on FACSCalibur (Beckton Dickinson) and analyzed using FlowJo software (Tree Star).
(§2) To further characterize activation of CPA-7 treated immune cells, Phospho-Stat3 (Stat3P) levels in tumor-infiltrating DCs were assessed 24 hours after intravenous injection with vehicle or CPA-7 and compared to splenic CD11c^+ cells from tumor-free Stat3^+/+ mice. […] Also shown in FIG. 33, CPA-7 treated tumor-infiltrating DCs have increased phosphorylated Stat1.

MB49 tumor cells = test: CPA-7-induced tumor-cell apoptosis in vitro by annexin V staining; assay type: cell-based, mouse; conditions: annexin V staining (FIG. 31)
Protocol: Cell lines. Mouse B16 melanoma, YAC-1 and P815 target cells were purchased from American Type Culture Collection. MB49 bladder carcinoma and C4 mouse melanoma lines were gifts from T. Ratliff (University of Iowa) and J. Fidler (M.D. Anderson Cancer Center), respectively.
Flow cytometry. Single-cell suspensions were prepared by mechanic dispersion of spleen or tumor tissues. 1×10^6 freshly prepared cells suspended in a mixture of PBS, 2% FCS and 0.1% (wt/vol) sodium azide were preincubated with FcγIII/IIR-specific antibody to block nonspecific binding and cells were stained with different combinations of fluorochrome-coupled antibodies to CD11c, I-A^b (MHC class II), CD86, CD11b, Gr1, CD49b, CD3, CD25 or Lag-3, or with annexin V (BD Biosciences). Fluorescence data was collected on FACSCalibur (Beckton Dickinson) and analyzed using FlowJo software (Tree Star).
The effects of blocking Stat3 in immune cells with CPA-7, a small-molecule Stat3 inhibitor, were assessed. For these experiments, both B16 and MB49 tumor cells were used. In contrast to B16, MB49 tumor cells are insensitive to CPA-7-induced tumor-cell apoptosis, as determined by annexin V staining.

phosphorylated Stat1 = test: Stat1P levels in tumor-infiltrating DCs after intravenous CPA-7, intracellular flow cytometry; assay type: in vivo, mouse; conditions: 24 hours after intravenous injection (FIG. 33)
Protocol: as §1, §2

[1] = system: MB49, B16 or C4 tumor cells; test: Lung tumor nodules after intravenous tumor cell injection and CPA-7 treatment; assay type: in vivo, mouse; conditions: 5×10^4 MB49, B16 or C4 cells i.v., CPA-7 5 mg/kg twice weekly, day 21 (FIG. 38)
Protocol: Mice were injected intravenously with 5×10^4 MB49, B16 or C4 tumor cells, followed by twice weekly treatment with CPA-7 (5 mg/kg) or vehicle (10% DMSO). Lung colonies were enumerated 21 days later, when control mice became moribund.
To visualize lung tumor nodules, lungs were fixed and bleached in Fekete's solution with or without India ink as a counterstain.

YAC-1 cells = test: 51Cr-release assay of NK cell cytotoxicity from tumor-bearing mice treated with CPA-7; assay type: in vivo, mouse; conditions: NK cells from tumor-bearing mice treated with CPA-7, YAC-1 targets (FIG. 35)
Protocol: Cytotoxicity assays. NK cell and neutrophil cytotoxicity assays were performed as described by Wei, S. et al., J. Exp. Med. 187, 1753-1765 (1998), which is incorporated herein by reference. Briefly, a 4-hour ^51Cr-release assay was carried out using YAC-1 cells as targets for enriched NK cells or FcγR^+ mouse mastocytoma (P815) cells as targets for enriched neutrophils. Cytotoxicity of CPA-7-treated NK cells from tumor-bearing hosts was assessed using a standard ^51Cr-release assay with YAC-1 cells as targets, as described in Example 1.

[2] = Immunohistochemical analysis of colon sections for autoimmune pathology; assay type: in vivo, mouse; conditions: tumor-bearing Stat3+/+ and Stat3−/− mice, CPA-7 every third day for three weeks (FIG. 30)
Protocol: Transverse colon sections were stained with hematoxylin-eosin and antibodies to CD4, CD8 or CD11b. Staining with rat IgG was used as a negative control.
Colons from tumor free Stat3^−/− mice were evaluated for autoimmune effects at 20 weeks after Stat3 deletion by immunohistochemical analysis. […] In contrast, there was virtually no evidence of systemic autoimmunity at 4 weeks after induced depletion in tumor-bearing Stat3^+/+ and Stat3^−/− mice (FIG. 29).

MB49 tumors = test: Growth of established MB49 tumors in mice treated with CPA-7; assay type: in vivo, mouse
Protocol: For CPA-7 treatment, MB49 tumors were implanted into male C57BL/6 mice and tumors were allowed to grow until 5-7 mm in diameter. Mice were given intravenous injections of either vehicle (10% DMSO/PBS) or 5 mg/kg CPA-7 once every 3 days.
Mice with MB49 tumors (about 6 mm in diameter) received intravenous injections of either vehicle or CPA-7.
Mice with established MB49 tumors were treated with vehicle or CPA-7 in combination with control or asialo GM1-specific antibody.

Stat3 = biological target: T2, Stat3 (Mus musculus, UniProt P42227); test: EMSA of Stat DNA binding in DC2.4 dendritic cells preincubated with CPA-7 (Stat3); assay type: cell-based; conditions: DC2.4 cells, 10 μm CPA-7 overnight, then 20 ng/ml IL-6 for 20 minutes, EMSA (FIG. 32)
T2 construct: endogenous in cells; host or cells: mouse DC2.4 dendritic cells
T2 sequence (P42227 whole entry): as above
Protocol: Mouse DC2.4 dendritic cells were preincubated with 10 μm CPA-7 overnight and then stimulated for 20 minutes with 20 ng/ml IL-6 (activator of both Stat3 and Stat1), 500 U/ml IFN-γ (activator of […]) or 20 ng/ml GM-CSF (activator of Stat5). After cell lysis, nuclear extracts were prepared and EMSA was conducted to detect DNA binding.

## [NH2][Pt]([NH2])([Cl])([Cl])([Cl])[N+](=O)[O-] [CPA-7]
Phospho-Stat3 (Stat3P)
  phosphorylated Stat3 in tumor-infiltrating DCs: considerably reduced
MB49 tumor cells
  sensitivity to CPA-7-induced tumor-cell apoptosis: insensitive
Phosphorylated Stat1
  phosphorylated Stat1 in tumor-infiltrating DCs: increased
[1]
  lung tumor nodules: significantly reduced or completely abrogated
YAC-1 cells
  NK cell activity (cytotoxicity): increased
[2]
  pathologic changes in colons: lack of pathologic changes
MB49 tumors; MB49 tumors about 6 mm in diameter, intravenous CPA-7 5 mg/kg once every 3 days (FIG. 34)
  growth of established tumors: inhibits the growth of established tumors
MB49 tumors; MB49 tumors, antibodies to CD4 and CD8 (FIG. 34)
  CPA-7-induced tumor growth inhibition in the absence of CD4+ and CD8+ T cells: abrogated
MB49 tumors; established MB49 tumors, asialo GM1-specific antibody (FIG. 36)
  in vivo antitumor effects of CPA-7 treatment with NK depletion: partially abrogates
Stat3
  inhibition of Stat3 DNA binding: inhibits Stat3
